# Experimental data published in publication PMC7179259, “Safety, Tolerability, Pharmacokinetics, and Antimalarial Activity of the Novel Plasmodium Phosphatidylinositol 4-Kinase Inhibitor MMV390048 in Healthy Volunteers” (Antimicrobial Agents and Chemotherapy, 2020).
# Marks after values point to notes of the source that are not given here.
# Experiments:
# rats = test system: rats; set-up: method as in not given; conditions: preclinical toxicology studies in rats; ref not given; cited from earlier work
# healthy volunteers = experiment: First-in-human single-ascending-dose study: safety and tolerability; format: in vivo; conditions: for lowest observed neutrophil count: 24 h after 40 mg
# Description: The first-in-human study was conducted at the University of Cape Town Clinical Research Centre (Cape Town, South Africa) between 30 April 2014 and 2 February 2015. This was a phase 1, adaptive, single-center, double-blind, randomized, placebo-controlled, ascending-dose study. The study was planned in two parts, with a single ascending dose and then a multiple ascending dose. However, the multiple-ascending-dose part was not executed due to the high variability in pharmacokinetic profiles observed during the single-ascending-dose part (see Results).
# (i) First-in-human study. The study was conducted in five fasted cohorts (5, 20, 40, 80, and 120 mg) and one fed 40-mg cohort. The initial dose of 5 mg was chosen in agreement with guidelines on dose selection for first-in-human clinical studies ([15], [16]) and was based on the no-observed-adverse-event level for the most sensitive species observed in preclinical toxicology studies. Doses administered to subsequent cohorts were determined a priori after consideration of interim human pharmacokinetic and safety data.
# MMV390048 and placebo were each supplied as a powder for suspension packaged in white opaque high-density polyethylene bottles, with a volume capacity of 100 ml when reconstituted with deionized water (Almac Pharma Services, United Kingdom). The powder contained the following excipients: Avicel CL611, disodium edetate, sodium citrate dihydrate, methyl paraben, sucralose, povidone, and orange flavor. The reconstituted formulation consisted of the active ingredient MMV390048 in an aqueous suspension of 5 mg ml^−1.
# All subjects in the fasted cohorts were dosed on day 1 after a fasting period of ≥8 h. Water was prohibited from 2 h predose and then allowed ad libitum from 2 h postdose, and standardized meals were provided from 4 h postdose. In the first two cohorts (5 and 20 mg), a sentinel subcohort (n = 2) was dosed on day 1. The safety review team reviewed safety and pharmacokinetic data of these subjects up to day 3 before dosing the rest of these two cohorts and up to day 19 for all cohorts before dose escalation. […] Selected subjects from the fasted cohorts then received 40 mg in a fed state to evaluate the effect of food on the tolerability and pharmacokinetic profile of MMV390048. […] The predose breakfast was in line with FDA guidelines ([13]) and was composed of approximately 800 to 1,000 calories (cal), with 150, 250, and 500 to 600 cal from protein, carbohydrate, and fat, respectively.
# (§1) Safety endpoints were the incidence, severity, and relationship to the investigational product (and inoculum for the IBSM study) of observed and self-reported adverse events (AEs), and changes from baseline in physical examination, vital signs, standard electrocardiograms (ECGs), continuous ECGs (first-in-human study only), and laboratory evaluation (hematology, coagulation parameters, hemolysis panel, clinical chemistry, and urinalysis) findings. […] AE severity was evaluated according to the Common Terminology Criteria for Adverse Events version 4.03 ([18]) and the World Health Organization recommendations for grading acute and subacute toxic effects ([19]).
# healthy subjects = experiment: Formulation optimization study: safety; format: in vivo, human; conditions: both tablet formulations
# Description: The third study was a formulation optimization study to test two MMV390048 tablet formulations (tartaric acid and Syloid). The formulation optimization study was conducted at Richmond Pharmacology Ltd. (London, United Kingdom) from 17 September to 28 October 2015. This was a phase 1, open-label, single-dose, parallel-group, two-cohort design study.
# (iii) Formulation optimization study. Subjects received one of two tablet formulations (formulation A, tartaric acid tablets; formulation B, Syloid tablets; manufactured by Quotient Clinical, United Kingdom) on day 1, after an ≥8-h fasting period, at a dose of 40 mg with 240 ml of water. Subjects were followed up until day 29.
# as §1
# [1] = set-up: method as in PMID 28446690; conditions: predicted for humans; cited from earlier work
# [2] = first-in-human study, 5 mg (n = 6)
# [3] = first-in-human study, 20 mg (n = 6)
# [4] = first-in-human study, 40 mg (n = 6)
# [5] = first-in-human study, 40 mg (n = 6), AE was neutropenia
# [6] = first-in-human study, 40 mg FED (n = 6)
# [7] = first-in-human study, 40 mg FED (n = 6), AE was neutropenia
# [8] = first-in-human study, 80 mg (n = 6)
# [9] = first-in-human study, 120 mg (n = 6)
# [10] = first-in-human study, 120 mg (n = 6), SAE was generalized myoclonus
smiles,measurement,setting,value
CS(=O)(=O)c1ccc(-c2cnc(N)c(-c3ccc(C(F)(F)F)nc3)c2)cc1 [MMV390048],testicular toxicity,rats,testicular toxicity was observed
same,serious AE (SAE) reported,"healthy volunteers; approximately 24 h after 120 mg, subject with undisclosed history of epilepsy",generalized myoclonus
same,No. (%) of subjects with adverse events: All AEs,healthy volunteers; [2],4 (67)
same,"No. (%) of subjects with adverse events: All AEs, Treatment related",healthy volunteers; [2],0
same,No. (%) of subjects with adverse events: Grade 2 AEs,healthy volunteers; [2],0
same,"No. (%) of subjects with adverse events: Grade 2 AEs, Treatment related",healthy volunteers; [2],0
same,No. (%) of subjects with adverse events: Grade 3 AEs,healthy volunteers; [2],0
same,No. (%) of subjects with adverse events: SAEs,healthy volunteers; [2],0
same,No. of adverse events: All AEs,healthy volunteers; [2],11
same,"No. of adverse events: All AEs, Treatment related",healthy volunteers; [2],0
same,No. of adverse events: Grade 2 AEs,healthy volunteers; [2],0
same,"No. of adverse events: Grade 2 AEs, Treatment related",healthy volunteers; [2],0
same,No. of adverse events: Grade 3 AEs,healthy volunteers; [2],0
same,No. of adverse events: SAEs,healthy volunteers; [2],0
same,No. (%) of subjects with adverse events: All AEs,healthy volunteers; [3],5 (83)
same,"No. (%) of subjects with adverse events: All AEs, Treatment related",healthy volunteers; [3],3 (50)
same,No. (%) of subjects with adverse events: Grade 2 AEs,healthy volunteers; [3],4 (67)
same,"No. (%) of subjects with adverse events: Grade 2 AEs, Treatment related",healthy volunteers; [3],1 (17)
same,No. (%) of subjects with adverse events: Grade 3 AEs,healthy volunteers; [3],0
same,No. (%) of subjects with adverse events: SAEs,healthy volunteers; [3],0
same,No. of adverse events: All AEs,healthy volunteers; [3],12
same,"No. of adverse events: All AEs, Treatment related",healthy volunteers; [3],3
same,No. of adverse events: Grade 2 AEs,healthy volunteers; [3],5
same,"No. of adverse events: Grade 2 AEs, Treatment related",healthy volunteers; [3],1
same,No. of adverse events: Grade 3 AEs,healthy volunteers; [3],0
same,No. of adverse events: SAEs,healthy volunteers; [3],0
same,No. (%) of subjects with adverse events: All AEs,healthy volunteers; [4],5 (83)
same,"No. (%) of subjects with adverse events: All AEs, Treatment related",healthy volunteers; [4],3 (50)
same,No. (%) of subjects with adverse events: Grade 2 AEs,healthy volunteers; [4],3 (50)
same,"No. (%) of subjects with adverse events: Grade 2 AEs, Treatment related",healthy volunteers; [4],1 (17)
same,No. (%) of subjects with adverse events: SAEs,healthy volunteers; [4],0
same,No. of adverse events: All AEs,healthy volunteers; [4],19
same,"No. of adverse events: All AEs, Treatment related",healthy volunteers; [4],3
same,No. of adverse events: Grade 2 AEs,healthy volunteers; [4],4
same,"No. of adverse events: Grade 2 AEs, Treatment related",healthy volunteers; [4],1
same,No. of adverse events: SAEs,healthy volunteers; [4],0
same,No. (%) of subjects with adverse events: Grade 3 AEs,healthy volunteers; [5],1 (17)^c
same,No. of adverse events: Grade 3 AEs,healthy volunteers; [5],1^c
same,No. (%) of subjects with adverse events: All AEs,healthy volunteers; [6],6 (100)
same,"No. (%) of subjects with adverse events: All AEs, Treatment related",healthy volunteers; [6],2 (33)
same,No. (%) of subjects with adverse events: Grade 2 AEs,healthy volunteers; [6],2 (33)
same,"No. (%) of subjects with adverse events: Grade 2 AEs, Treatment related",healthy volunteers; [6],1 (17)
same,No. (%) of subjects with adverse events: SAEs,healthy volunteers; [6],0
same,No. of adverse events: All AEs,healthy volunteers; [6],22
same,"No. of adverse events: All AEs, Treatment related",healthy volunteers; [6],2
same,No. of adverse events: Grade 2 AEs,healthy volunteers; [6],2
same,"No. of adverse events: Grade 2 AEs, Treatment related",healthy volunteers; [6],1
same,No. of adverse events: SAEs,healthy volunteers; [6],0
same,No. (%) of subjects with adverse events: Grade 3 AEs,healthy volunteers; [7],1 (17)^c
same,No. of adverse events: Grade 3 AEs,healthy volunteers; [7],1^c
same,No. (%) of subjects with adverse events: All AEs,healthy volunteers; [8],6 (100)
same,"No. (%) of subjects with adverse events: All AEs, Treatment related",healthy volunteers; [8],2 (33)
same,No. (%) of subjects with adverse events: Grade 2 AEs,healthy volunteers; [8],5 (83)
same,"No. (%) of subjects with adverse events: Grade 2 AEs, Treatment related",healthy volunteers; [8],0
same,No. (%) of subjects with adverse events: Grade 3 AEs,healthy volunteers; [8],0
same,No. (%) of subjects with adverse events: SAEs,healthy volunteers; [8],0
same,No. of adverse events: All AEs,healthy volunteers; [8],20
same,"No. of adverse events: All AEs, Treatment related",healthy volunteers; [8],3
same,No. of adverse events: Grade 2 AEs,healthy volunteers; [8],6
same,"No. of adverse events: Grade 2 AEs, Treatment related",healthy volunteers; [8],0
same,No. of adverse events: Grade 3 AEs,healthy volunteers; [8],0
same,No. of adverse events: SAEs,healthy volunteers; [8],0
same,No. (%) of subjects with adverse events: All AEs,healthy volunteers; [9],6 (100)
same,"No. (%) of subjects with adverse events: All AEs, Treatment related",healthy volunteers; [9],1 (17)
same,No. (%) of subjects with adverse events: Grade 2 AEs,healthy volunteers; [9],2 (33)
same,"No. (%) of subjects with adverse events: Grade 2 AEs, Treatment related",healthy volunteers; [9],1 (17)
same,No. (%) of subjects with adverse events: Grade 3 AEs,healthy volunteers; [9],0
same,No. of adverse events: All AEs,healthy volunteers; [9],11
same,"No. of adverse events: All AEs, Treatment related",healthy volunteers; [9],1
same,No. of adverse events: Grade 2 AEs,healthy volunteers; [9],3
same,"No. of adverse events: Grade 2 AEs, Treatment related",healthy volunteers; [9],1
same,No. of adverse events: Grade 3 AEs,healthy volunteers; [9],0
same,No. (%) of subjects with adverse events: SAEs,healthy volunteers; [10],1 (17)^e
same,No. of adverse events: SAEs,healthy volunteers; [10],1^e
same,"trends in inhibin B, FSH, LH, or testosterone levels","healthy volunteers; first-in-human study, across dose groups",No trends
same,adverse events considered potentially related to MMV390048,"healthy volunteers; first-in-human study, all MMV390048 cohorts",Twelve
same,"QT prolongation (QTcF, >450 ms)","healthy volunteers; first-in-human study, any subject",No QT prolongation
same,decrease in blood pressure (to),"healthy volunteers; first-in-human study, mild related AE, one subject",87/52
same,"diarrhea considered related to MMV390048, cases","healthy volunteers; first-in-human study, moderate severity, in 2 subjects",2
same,duration of moderate papular urticaria episode,"healthy volunteers; one subject, 20 mg",20 days
same,onset of moderate papular urticaria after dosing,"healthy volunteers; one subject, 20 mg",14 days
same,time for neutrophil count to return to >1.5 × 10^9 liter^−1,"healthy volunteers; one subject, 40 mg fasted",4 days
same,time for neutrophil count to return to >1.5 × 10^9 liter^−1,"healthy volunteers; one subject, 40 mg fed",13 days
same,"PR prolongation on ECG, maximum","healthy volunteers; one subject, 24 h after 20 mg, PR 200.3 ms on admission",285 ms
same,lowest observed neutrophil count,"healthy volunteers; one subject, fasted state (predose 1.65)",7.7e+08 L⁻¹
same,lowest observed neutrophil count,"healthy volunteers; one subject, fed state (predose 1.90)",9.7e+08 L⁻¹
same,tolerability,"healthy volunteers; single oral dose up to 120 mg, healthy volunteers",generally well tolerated
same,total AEs reported,healthy subjects; 18 subjects,11
same,subjects with AEs,healthy subjects; of 18 subjects,7
same,elimination half-life in humans predicted from preclinical studies,[1],90 h
